Data from the supplement of paper PMC10307832.

Columns and labels:
Experiment in all cases: relative viability (nuclei count vs DMSO), 5 days (fraction); higher = more cells survive
[1] = compound: Cc1cc([C@@H](C)Nc2ccccc2C(=O)O)c2nc(N3CCOCC3)cc(=O)n2c1 [AZD6482] + CC(=O)Nc1cccc(-n2c(=O)n(C3CC3)c(=O)c3c(Nc4ccc(I)cc4F)n(C)c(=O)c(C)c32)c1 [Trametinib] (partner 0.02 µM)
In short: (§1)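 A single step with final 0.05% Triton X-100, 1% formaldehyde and 1 ug/ml Hoechst fixed the cells and stained nuclei 5 days after treatment. Lung cancer cell lines in 1536-well plates had been treated by pin tool the day after seeding with one drug alone or a fixed anchor-drug dose plus five library-drug doses (not always all listed) in √10 steps, and nuclei were counted on 4× images. Relative viability is the ratio of nuclei in treated wells to nuclei in vehicle wells, taken as the median of duplicate plates.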

[2] = compound: COc1cc2nc(N3CCCN(C)CC3)nc(NC3CCN(Cc4ccccc4)CC3)c2cc1OC + Cc1nc(Nc2ncc(C(=O)Nc3c(C)cccc3Cl)s2)cc(N2CCN(CCO)CC2)n1 [Dasatinib] (partner 0.075 µM)
In short: as §1

[3] = compound: COc1cc2nc(N3CCCN(C)CC3)nc(NC3CCN(Cc4ccccc4)CC3)c2cc1OC + CC(C)C[C@H](NC(=O)[C@H](Cc1ccccc1)NC(=O)c1cnccn1)B(O)O [Bortezomib] (partner 0.002 µM)
In short: as §1

[4] = compound: Cc1cc([C@@H](C)Nc2ccccc2C(=O)O)c2nc(N3CCOCC3)cc(=O)n2c1 [AZD6482] + COc1cc2c(Oc3ccc(NC(=O)C4(C(=O)Nc5ccc(F)cc5)CC4)cc3F)ccnc2cc1OCCCN1CCOCC1 [Foretinib] (partner 0.25 µM)
In short: as §1

| Cell Line | relative viability ([1]; first compound 0.08 µM) | relative viability ([1]; first compound 0.253 µM) | relative viability ([1]; first compound 0.8 µM) | relative viability ([1]; first compound 2.53 µM) | relative viability ([1]; first compound 8 µM) | relative viability ([2]; first compound 0.2 µM) | relative viability ([2]; first compound 0.6325 µM) | relative viability ([2]; first compound 2 µM) | relative viability ([2]; first compound 6.325 µM) | relative viability ([3]; first compound 0.2 µM) | relative viability ([3]; first compound 0.6325 µM) | relative viability ([3]; first compound 2 µM) | relative viability ([3]; first compound 6.325 µM) | relative viability ([4]; first compound 0.08 µM) | relative viability ([4]; first compound 0.253 µM) | relative viability ([4]; first compound 0.8 µM) | relative viability ([4]; first compound 2.53 µM) | relative viability ([4]; first compound 8 µM) |
| --- | --- | --- | --- | --- | --- | --- | --- | --- | --- | --- | --- | --- | --- | --- | --- | --- | --- | --- |
| NCI-H2023 | 0.455 | 0.52 | 0.547 | 0.28 | 0.389 | 0.57 | 0.558 | 0.56 | 0.237 | 1.02 | 0.967 | 1.05 | 0.329 | 0.83 | 0.757 | 1.02 | 0.477 | 0.518 |
| COR-L 105 | 0.378 | 0.451 | 0.46 | 0.383 | 0.423 | 0.338 | 0.472 | 0.328 | 0.25 | 0.787 | 0.835 | 0.591 | 0.404 | 1.08 | 0.711 | 1.03 | 0.744 | 0.932 |
| RERF-LC-KJ | 0.767 | 0.764 | 0.74 | 0.682 | 0.584 | 0.805 | 0.812 | 1.01 | 0.567 | 1.12 | 1.08 | 1.14 | 1.02 | 0.791 | 0.825 | 0.822 | 0.781 | 0.7 |
| LXF-289 | 0.681 | 0.77 | 0.801 | 0.717 | 0.609 | 0.263 | 0.212 | 0.252 | 0.213 | 0.98 | 0.973 | 1.03 | 0.985 | 0.912 | 0.916 | 0.977 | 0.938 | 0.831 |
| PC-14 | 0.704 | 0.747 | 0.794 | 0.455 | 0.622 | 0.236 | 0.277 | 0.197 | 0.0162 | 0.984 | 0.72 | 0.981 | 0.461 | 0.906 | 0.9 | 0.945 | 0.83 | 0.953 |
| NCI-H650 | 0.958 | 0.906 | 0.805 | 0.663 | 0.711 | 0.48 | 0.472 | 0.441 | 0.38 | 0.752 | 0.739 | 1.05 | 0.694 | 1.02 |  | 0.978 | 0.651 | 0.704 |
| NCI-H1666 | 0.766 | 0.944 | 0.808 | 0.81 | 0.835 | 0.819 | 0.847 | 0.788 | 0.718 | 0.832 | 0.781 | 0.701 | 0.468 | 0.914 | 0.868 | 1.03 | 0.785 | 0.989 |
| NCI-H2085 | 0.266 | 0.231 | 0.218 | 0.223 | 0.218 | 0.217 | 0.306 | 0.262 | 0.206 | 1 | 0.978 | 0.996 | 0.912 | 0.62 | 0.637 | 0.338 | 0.308 | 0.29 |
| NCI-H1734 | 0.613 | 0.656 | 0.565 | 0.519 | 0.491 | 0.524 | 0.37 | 0.46 | 0.416 | 0.919 | 0.792 | 1.05 | 0.662 | 0.829 | 0.788 | 0.875 | 0.604 | 0.671 |
| NCI-H2126 | 0.538 | 0.531 | 0.448 | 0.39 | 0.351 | 0.583 | 0.678 | 0.597 | 0.502 | 1.15 | 1.09 | 1.13 | 1.08 | 1.08 | 0.954 | 1.12 | 0.757 | 0.724 |
| EMC-BAC-2 | 0.841 | 0.956 | 0.893 | 0.667 | 0.706 | 0.345 | 0.305 | 0.327 | 0.371 | 1.09 | 1.12 | 1.11 | 1.09 | 0.861 | 0.94 | 0.969 | 0.718 | 0.698 |
| NCI-H1993 | 0.506 | 0.498 | 0.446 | 0.52 | 0.475 | 0.568 | 0.657 | 0.657 | 0.574 | 1.02 | 1.37 | 1.23 | 1.05 | 0.674 | 0.745 | 0.846 | 0.558 | 0.562 |
| NCI-H520 | 0.567 | 0.463 | 0.433 | 0.201 | 0.26 | 0.217 | 0.228 | 0.252 | 0.187 | 0.792 | 0.623 | 0.777 | 0.217 | 0.423 | 0.661 | 0.493 | 0.203 | 0.304 |
| NCI-H647 | 0.32 | 0.367 | 0.333 | 0.254 | 0.209 | 0.201 | 0.233 | 0.192 | 0.149 | 0.967 | 1 | 1.35 | 0.449 | 0.86 | 1.3 | 0.946 | 0.721 | 0.623 |
| SK-LU-1 |  | 0.418 | 0.495 | 0.399 | 0.453 | 0.21 | 0.159 | 0.206 | 0.119 | 1.14 | 1.19 | 1.5 | 1.07 |  | 0.735 | 0.688 | 0.555 | 0.584 |
